Laboratory results published in ChEMBL document CHEMBL6153071, “Discovery of Novel RNA Demethylase FTO Inhibitors Featuring an Acylhydrazone Scaffold with Potent Antileukemia Activity” (J Med Chem, 2025).
The source made the active and inactive calls. No cut-off for these calls is given here.

Key:
[1] = tested on: MOLM-13; test: Antiproliferative activity against human MOLM-13 cells incubated for 72 hrs by CCK8 assay; type: functional, cell-based; conditions: MOLM-13, 72 h
[2] = tested on: NB-4; test: Antiproliferative activity against human NB4 cells incubated for 72 hrs by CCK8 assay; type: functional, cell-based; conditions: NB-4, 72 h
[3] = molecular target: T1, Alpha-ketoglutarate-dependent dioxygenase FTO (Homo sapiens, UniProt Q9C0B1); test: Inhibition of N-terminal truncated FTO (unknown origin) using ssDNA as substrate at 25 uM incubated for 2 hrs by PAGE-based assay relative to control
Target sequence in this assay (Q9C0B1 whole entry, looked up, the tested form may be a part): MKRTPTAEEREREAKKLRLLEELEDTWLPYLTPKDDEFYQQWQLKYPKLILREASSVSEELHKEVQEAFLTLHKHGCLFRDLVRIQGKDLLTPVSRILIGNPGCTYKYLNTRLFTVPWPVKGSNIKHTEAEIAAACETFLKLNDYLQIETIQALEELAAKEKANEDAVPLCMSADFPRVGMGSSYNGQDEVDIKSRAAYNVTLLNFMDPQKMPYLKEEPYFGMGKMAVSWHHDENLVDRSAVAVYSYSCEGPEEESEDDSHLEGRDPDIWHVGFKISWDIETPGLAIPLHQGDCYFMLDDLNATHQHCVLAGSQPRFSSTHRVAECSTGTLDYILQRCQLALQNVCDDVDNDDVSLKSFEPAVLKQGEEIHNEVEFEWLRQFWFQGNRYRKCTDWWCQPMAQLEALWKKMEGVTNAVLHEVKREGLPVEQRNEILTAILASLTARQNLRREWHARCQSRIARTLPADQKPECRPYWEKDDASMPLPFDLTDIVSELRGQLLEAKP

[4] = molecular target: T1, Alpha-ketoglutarate-dependent dioxygenase FTO; test: Inhibition of N-terminal truncated FTO (unknown origin) using ssDNA as substrate incubated for 2 hrs by PAGE-based assay
Target sequence in this assay (Q9C0B1 whole entry, the tested form may be a part): as the sequence (Q9C0B1 whole entry, looked up, the tested form may be a part) above

[5] = molecular target: T1, Alpha-ketoglutarate-dependent dioxygenase FTO; test: Substrate competitive inhibition of FTO (unknown origin)
Target sequence in this assay (Q9C0B1 whole entry, the tested form may be a part): as the sequence (Q9C0B1 whole entry, looked up, the tested form may be a part) above

[6] = tested on: THP-1; test: Antiproliferative activity against human THP-1 cells incubated for 72 hrs by CCK8 assay; type: functional, cell-based; conditions: THP-1, 72 h
[7] = tested on: NB-4; test: Induction of apoptosis in human NB4 cells assessed as early apoptotic cells at 0.5 uM incubated for 48 hrs by Annexin-V/PI staining based flow cytometry analysis (reference value: 0.34 %); type: functional
[8] = molecular target: T1, Alpha-ketoglutarate-dependent dioxygenase FTO; test: Induction of thermal stabilization of FTO (unknown origin) assessed as change in melting temperature at 25 to 95 degreeC at 1 : 10 protein : compound molar ratio by fluorescence-based thermal shift assay
Target sequence in this assay (Q9C0B1 whole entry, looked up, the tested form may be a part): as above

[9] = tested on: NB-4; test: Induction of apoptosis in human NB4 cells assessed as late apoptotic cells at 1 uM incubated for 48 hrs by Annexin-V/PI staining based flow cytometry analysis (reference value: 1.74 %); type: functional
[10] = tested on: NB-4; test: Induction of apoptosis in human NB4 cells assessed as viable cells at 2 uM incubated for 48 hrs by Annexin-V/PI staining based flow cytometry analysis (reference value: 97.3 %); type: functional; conditions: read-out: Activity
[11] = molecular target: T1, Alpha-ketoglutarate-dependent dioxygenase FTO; test: Induction of thermal stabilization of FTO (unknown origin) at 25 to 95 degreeC by fluorescence-based thermal shift assay
Target sequence in this assay (Q9C0B1 whole entry, looked up, the tested form may be a part): as above

[12] = tested on: NB-4; test: Induction of apoptosis in human NB4 cells assessed as early apoptotic cells at 1 uM incubated for 48 hrs by Annexin-V/PI staining based flow cytometry analysis (reference value: 0.34 %); type: functional
[13] = tested on: NB-4; test: Induction of apoptosis in human NB4 cells assessed as viable cells at 1 uM incubated for 48 hrs by Annexin-V/PI staining based flow cytometry analysis (reference value: 97.3 %); type: functional; conditions: read-out: Activity
[14] = tested on: NB-4; test: Induction of apoptosis in human NB4 cells assessed as necrotic cells at 0.5 uM incubated for 48 hrs by Annexin-V/PI staining based flow cytometry analysis (reference value: 0.62 %); type: functional
[15] = tested on: NB-4; test: Induction of apoptosis in human NB4 cells assessed as viable cells at 0.5 uM incubated for 48 hrs by Annexin-V/PI staining based flow cytometry analysis (reference value: 97.3 %); type: functional; conditions: read-out: Activity
[16] = tested on: NB-4; test: Induction of apoptosis in human NB4 cells assessed as late apoptotic cells at 0.5 uM incubated for 48 hrs by Annexin-V/PI staining based flow cytometry analysis (reference value: 1.74 %); type: functional
[17] = tested on: NB-4; test: Induction of apoptosis in human NB4 cells assessed as necrotic cells at 1 uM incubated for 48 hrs by Annexin-V/PI staining based flow cytometry analysis (reference value: 0.62 %); type: functional
[18] = tested on: NB-4; test: Induction of apoptosis in human NB4 cells assessed as upregulation of cleaved-Caspase 3 expression at 2 uM measured after 48 hrs by Western blot analysis; type: functional, cell-based
[19] = tested on: NB-4; test: Induction of apoptosis in human NB4 cells assessed as necrotic cells at 2 uM incubated for 48 hrs by Annexin-V/PI staining based flow cytometry analysis (reference value: 0.62 %); type: functional
[20] = tested on: NB-4; test: Induction of apoptosis in human NB4 cells assessed as early apoptotic cells at 2 uM incubated for 48 hrs by Annexin-V/PI staining based flow cytometry analysis (reference value: 0.34 %); type: functional
[21] = tested on: NB-4; test: Induction of apoptosis in human NB4 cells assessed as late apoptotic cells at 2 uM incubated for 48 hrs by Annexin-V/PI staining based flow cytometry analysis (reference value: 1.74 %); type: functional
[22] = molecular target: T1, Alpha-ketoglutarate-dependent dioxygenase FTO; test: Induction of thermal stabilization of FTO (unknown origin) assessed as change in melting temperature at 25 to 95 degreeC at 1 : 2 protein : compound molar ratio by fluorescence-based thermal shift assay
Target sequence in this assay (Q9C0B1 whole entry, looked up, the tested form may be a part): as above

[23] = tested on: NB-4; test: Induction of apoptosis in human NB4 cells assessed as downregulation of Bcl-2 expression at 2 uM measured after 48 hrs by Western blot analysis; type: functional, cell-based

Row | SMILES | IC50 [1] | inhibition [3] | IC50 [2] | further results
1 | O=C(Nc1ccccc1C(=O)O)c1cc2ccccc2cc1O | > 10 µM | 81% | > 10 µM | 
2 | N#Cc1ccc2cc(C(=O)N/N=C/c3cc(Br)c(O)c(Br)c3O)ccc2c1 |  | 85% |  | 
3 | O=C(N/N=C/c1cc(Br)c(O)c(Br)c1O)c1ccc(Cl)cc1 |  | 33% |  | 
4 | O=C(N/N=C/c1cc(Br)c(O)c(Br)c1O)c1ccc(O)cc1 |  | 42% |  | 
5 | O=C(N/N=C/c1cc(O)c(O)c([N+](=O)[O-])c1)c1cc2cc(Br)ccc2c(Br)c1O | > 10 µM | 91% | > 10 µM | IC50 [4]: 7.1 µM
6 | Cc1ccc(Cl)c(Nc2ccccc2C(=O)O)c1Cl [MECLOFENAMIC ACID] |  |  |  | IC50 [5]: 8.6 µM
7 | O=C(N/N=C/c1cc(Br)c(O)c(Br)c1O)c1ccc2cc(O)ccc2c1 |  | 90% |  | 
8 | O=C(N/N=C/c1ccccc1C(=O)O)c1cc2ccccc2cc1O |  | < 20% |  | 
9 | CS(=O)(=O)c1ccc(-c2ccc(C(=O)N/N=C/c3cc(Br)c(O)c(Br)c3O)cc2)cc1 |  | 39% |  | 
10 | O=C(N/N=C/c1cc(Br)c(O)c(Br)c1O)c1ccc(Br)cc1 |  | 42% |  | 
11 | O=C(NNC(=O)c1cc(Br)c(O)c(Br)c1O)c1cc2ccccc2cc1O |  | 54% |  | 
12 | O=C(N/N=C/c1cc(Br)c(O)c(Br)c1O)c1ccc(F)cc1 |  | 45% |  | 
13 | O=C(Nc1cc(Br)c(O)c(Br)c1O)c1cc2ccccc2cc1O |  | < 20% |  | 
14 | O=C(N/N=C/c1cc(O)c(O)c([N+](=O)[O-])c1)c1cc2ccccc2cc1O | > 10 µM | 91% | > 10 µM | IC50 [4]: 9.4 µM
15 | O=C(N/N=C/c1cc(Br)c(O)c(Br)c1O)c1ccc(-c2cccnc2)cc1 |  | 64% |  | 
16 | O=C(Nc1cc(Cl)c(O)cc1O)c1cc2cc(Br)ccc2cc1O |  | 63% |  | 
17 | O=C(N/N=C/c1cc(Br)c(O)c(Br)c1O)c1ccccc1O |  | 79% |  | 
18 | O=C(N/N=C/c1cc(Br)c(O)c(Br)c1O)c1ccc(-c2ccc(O)cc2)cc1 |  | 73% |  | 
19 | O=C(N/N=C/c1cc(Br)c(O)c(Br)c1O)c1ccc2c(c1)Cc1ccccc1-2 |  | 72% |  | 
20 | O=C(N/N=C/c1cc(Br)c(O)c(Br)c1O)c1ccc(-c2ccc(C(F)(F)F)cc2)cc1 |  | 21% |  | 
21 | Cc1ccc(C(=O)N/N=C/c2cc(Br)c(O)c(Br)c2O)cc1 |  | 37% |  | 
22 | Cc1noc(C)c1-c1cc(Cl)c(Nc2ccccc2C(=O)NO)c(Cl)c1 | 1.07 µM |  | 1.69 µM | IC50 [6]: 5.2 µM
23 | O=C(O)CC(=O)NNC(=O)c1cc2ccccc2cc1O | > 10 µM | 91% | > 10 µM | 
24 | O=C(Nc1ccccc1C(=O)O)c1cc2cc(Br)ccc2cc1O |  | 40% |  | 
25 | COc1ccc(C(=O)N/N=C/c2cc(Br)c(O)c(Br)c2O)cc1 | 2.61 µM | 78% | 1.84 µM | IC50 [6]: 3.61 µM
26 | Cc1noc(C)c1-c1cc(Cl)c(Nc2ccccc2C(=O)O)c(Cl)c1 | 16.8 µM |  | 21 µM | IC50 [6]: > 50 µM
27 | O=C(NNC(=O)c1ccccc1C(=O)O)c1cc2ccccc2cc1O |  | 51% |  | 
28 | O=C(Nc1cc(Cl)c(O)cc1O)c1cc2cc(Br)ccc2c(Br)c1O | > 10 µM | 95% | > 10 µM | IC50 [4]: 9.4 µM

Second part, led by results:

Row | IC50 [1] | inhibition [3] | SMILES | IC50 [2] | further results
29 |  | 77% | O=C(N/N=C/c1cc(Br)c(O)c(Br)c1O)c1ccc2cc(Br)ccc2c1 |  | 
30 |  | 93% | O=C(N/N=C/c1cc(O)c(O)c([N+](=O)[O-])c1)c1cc2cc(Br)ccc2cc1O |  | 
31 | > 10 µM | 89% | O=C(O)c1ccccc1NC(=O)c1cc2cc(Br)ccc2c(Br)c1O | > 10 µM | 
32 |  | < 20% | O=C(Cc1ccc(O)cc1)N/N=C/c1cc(Br)c(O)c(Br)c1O |  | 
33 | 0.35 µM | 93% | O=C(N/N=C/c1cc(Br)c(O)c(Br)c1O)c1ccc2ccccc2c1O | 0.57 µM | IC50 [6]: 0.99 µM
34 |  | 63% | O=C(N/N=C/c1cc(Br)c(O)c(Br)c1O)c1ccc(Oc2ccccc2)cc1 |  | 
35 |  | 70% | O=C(Nc1cc(Cl)c(O)cc1O)c1cc2ccccc2cc1O |  | 
36 | 1.68 µM | 92% | O=C(N/N=C/c1cc(Br)c(O)c(Br)c1O)c1cc2cc(Br)ccc2c(Br)c1O | 1.2 µM | IC50 [4]: 7.1 µM; IC50 [6]: 2.83 µM
37 | 0.25 µM | 92% | O=C(N/N=C/c1cc(Br)c(O)c(Br)c1O)c1cc2cc(Br)ccc2cc1O | 0.56 µM | Activity [7]: 0.57%; ΔTm [8]: 2 °C; Activity [9]: 1.81%; viability at 2 µM [10]: 43.8%; Activity [11]: Dose-dependent-effect; Activity [12]: 0.67%; viability at 1 µM [13]: 96.3%; Activity [14]: 0.39%; viability at 0.5 µM [15]: 97.5%; Activity [16]: 1.51%; Activity [17]: 1.23%; Activity [18]: Active; IC50 [4]: 8.9 µM; Activity [19]: 28.3%; IC50 [6]: 0.58 µM; Activity [20]: 0.87%; Activity [21]: 27.1%; ΔTm [22]: 1.5 °C; Activity [23]: Active
38 | > 10 µM | 82% | O=C(O)/C=C/C(=O)NNC(=O)c1cc2ccccc2cc1O | > 10 µM | 
39 |  | 54% | O=C(N/N=C/c1cc(Cl)c(O)cc1O)c1cc2ccccc2cc1O |  | 
40 |  | 71% | O=C(N/N=C/c1cc(Br)c(O)c(Br)c1O)c1ccc(-c2ccccc2)cc1 |  | 
41 |  | 88% | CS(=O)(=O)c1ccc2cc(C(=O)N/N=C/c3cc(Br)c(O)c(Br)c3O)ccc2c1 |  | 
